The values below come from PubChem BioAssay (NCI).

Each structure is given as a SMILES string.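 Five concentrations, 48 hours, 96-well plates. Here, GI50 denotes the concentration required for 50% inhibition of growth. TGI denotes the concentration required for complete inhibition of growth.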 Bounds are passed on as bounds.

What all share (assay): growth of human tumour cells (NCI), 48 h
The test system of experiment [1] is MCF7 breast.
Experiment [2] deals with KM12 colon.
In experiment [3] the test system is COLO 205 colon.
Experiment [4] has as its system HL-60(TB) leukemia.
In experiment [5] the test system is OVCAR-3 ovarian.
In experiment [6] the test system is HCT-116 colon.
For experiment [7], the system named is OVCAR-5 ovarian.
Experiment [8] concerns HS 578T breast.
For experiment [9], the system named is NCI-H226 lung.
Experiment [10] concerns NCI-H460 lung.

Consider `O=C(O)c1[nH]c2c([N+](=O)[O-])cc([N+](=O)[O-])cc2c1C(=O)O`, for which the TGI in [1], in experiment [2], in [3], in [4], in [5] and in [6] was > 100 µM in each case. Further, the TGI in [7], in experiment [8], in experiment [9] and in experiment [10] was > 100 µM each time.
Take `CCCCC[C@H]1C/C=C2/C(=O)C(Cl)=C[C@@H]2C/C=C\CCCC(=O)O1`: the GI50 in [1] is 0.0886 µM; in experiment [2] it was 0.518 µM; in experiment [3], 0.438 µM; in experiment [4], 0.565 µM; in experiment [5] it was 0.366 µM; in [6] it was 0.201 µM. Further, the GI50 in [7] was 0.649 µM; in experiment [8] it was 1.1 µM; in experiment [9] it was 0.544 µM; in [10], 0.629 µM. Also, the TGI turned out to be 2.7 µM in experiment [1]; 1.33 µM in [2]; 0.975 µM in experiment [3]; 2.72 µM in experiment [4]; 1.26 µM in experiment [5]; 0.57 µM in experiment [6]. The TGI came to 1.4 µM in [7], 25 µM in experiment [8], 1.5 µM in [9] and 1.91 µM in experiment [10].
Consider `COc1ccc2nc3ccccc3c(NCc3ccccc3)c2c1`, for which the GI50 is 2.01 µM in [1]; 3.49 µM in experiment [2]; 1.54 µM in experiment [3]; 2.15 µM in [4]; 2.65 µM in [5]; 1.72 µM in experiment [6]. Also, the GI50 in experiment [7] is 2.25 µM; in experiment [8] it was 2.19 µM; in experiment [9] it was 2.79 µM; in experiment [10], 2.19 µM. Besides, the TGI in experiment [1] was 4.89 µM; in experiment [2], 12.9 µM; in [3] it was 3.54 µM; in experiment [4], 4.81 µM; in experiment [5], 6.89 µM; in experiment [6], 5.25 µM. The TGI worked out at 7.35 µM in experiment [7], 5.57 µM in [8], 8.69 µM in experiment [9] and 4.86 µM in experiment [10].
With `O=C(Nc1ccc(Cl)cc1)N1CCN(c2ccc3nncn3n2)CC1`, the GI50 in [1] was 35.3 µM; in experiment [2], 52.9 µM; in [3], 51.6 µM; in experiment [4] it was 29.8 µM; in experiment [5], 62.4 µM; in experiment [6], 64 µM. Also, the GI50 is > 100 µM in experiment [7], > 100 µM in experiment [8], 68.4 µM in experiment [9] and 50.4 µM in experiment [10]. The TGI in [1], in [2], in experiment [3], in experiment [4], in [5] and in experiment [6] was > 100 µM throughout. For the same molecule, the TGI in experiment [7], in experiment [8], in experiment [9] and in experiment [10] was > 100 µM each time.
For `Nc1cc(N)c2nc(-c3ccccc3)c(NCc3ccc(Cl)c(Cl)c3)nc2c1`, the GI50 in experiment [1] was 12.4 µM; in experiment [2], 3.42 µM; in [3] it was 16.9 µM; in [4], 1.82 µM; in experiment [5] it was 2.64 µM; in experiment [6], 11.5 µM. Moreover, the GI50 in [7] is 23.8 µM; in experiment [8], 5.9 µM; in [9], 22.6 µM; in experiment [10], 20.8 µM. Further, the TGI in experiment [1] was 54.3 µM; in experiment [2], 21.3 µM; in experiment [3] it was 33.6 µM; in experiment [4], 7.94 µM; in [5] it was 6.98 µM; in experiment [6], 24.1 µM. The TGI worked out at 40.7 µM in [7], 46.7 µM in experiment [8], 46.3 µM in experiment [9] and 46.9 µM in experiment [10].
For `CCN(CC)CCCNc1cc(OC)c(OC)c2cccnc12`, the GI50 in experiment [1] is 1.71 µM; in experiment [2], 13 µM; in experiment [3] it was 10 µM; in experiment [4], 3.47 µM; in experiment [5], 2.19 µM; in [6], 2.18 µM. Besides, the GI50 in [7] was 20.6 µM; in experiment [8], 7.3 µM; in experiment [9], 15.2 µM; in [10], 1.47 µM. Further, the TGI stood at 5.47 µM in experiment [1]; 31 µM in [2]; 23.2 µM in [3]; 6.55 µM in [4]; 5.13 µM in [5]; 7.58 µM in experiment [6]. In addition, the TGI is 51.1 µM in [7], 42.8 µM in experiment [8], 37.7 µM in [9] and 16.9 µM in experiment [10].
On to `c1ccc(/C(=N\Nc2nc3ccccc3s2)c2ccccn2)cc1`, for which the TGI in experiment [1] was > 72.5 µM; in [2], > 100 µM; in experiment [3], 16.9 µM; in [4] it was 6.54 µM; in experiment [5], 1.72 µM; in [6], 9.16 µM. Besides, the TGI in experiment [7] is > 51.4 µM; in experiment [8], > 88.9 µM; in experiment [9], 29.7 µM; in experiment [10], 12.8 µM.
As for `COc1cccc(-c2nn(-c3ccccc3)cc2-c2ccnc(NCCCNS(=O)(=O)c3ccc(C(F)(F)F)cc3)c2)c1`, the GI50 in experiment [1] is 3.87 µM; in experiment [2], 4.02 µM; in experiment [3], 2.5 µM; in experiment [4], 3.97 µM; in [5] it was 5.75 µM; in [6], 4.18 µM. Also, the GI50 in [7] was > 100 µM; in experiment [8], 5.41 µM; in experiment [9], 8.75 µM; in [10], 6 µM. Also, the TGI in experiment [1] is > 100 µM; in [2], > 100 µM; in experiment [3], 7.77 µM; in experiment [4] it was > 100 µM; in experiment [5] it was > 100 µM; in experiment [6], > 100 µM. Also, the TGI in experiment [7], in experiment [8], in experiment [9] and in experiment [10] was > 100 µM in each case.
